In patent US20130023645A1 (priority 2006, published 2013):
Where “and” joins values, the source holds several entries; their conditions need not be identical. Equal values may be shown once. Positions of bridges follow the written chain, without caps; N, C: chain ends. Non-standard residues stand in square brackets, D forms with d. Residues, ends and D or L forms follow the SMILES beside them. ξ: configuration not given here. Ala(indol-2-yl) = N[C@@H](Cc1cc2ccccc2[nH]1)C(=O)O; AllylGly = C=CC[C@H](N)C(=O)O; ξP = O=C(O)C1CCCN1

Molecular target: T1, neuronal-type nicotinic receptors (Bos taurus, UniProt Q07263+Q8SPU6)
T1 construct: monolayer cultures of bovine adrenal chromaffin cells; endogenous in cells; host or cells: bovine adrenal chromaffin cells (primary monolayer cultures)
Assay type: cell-based, bovine

T1 sequence (Q07263 22-495): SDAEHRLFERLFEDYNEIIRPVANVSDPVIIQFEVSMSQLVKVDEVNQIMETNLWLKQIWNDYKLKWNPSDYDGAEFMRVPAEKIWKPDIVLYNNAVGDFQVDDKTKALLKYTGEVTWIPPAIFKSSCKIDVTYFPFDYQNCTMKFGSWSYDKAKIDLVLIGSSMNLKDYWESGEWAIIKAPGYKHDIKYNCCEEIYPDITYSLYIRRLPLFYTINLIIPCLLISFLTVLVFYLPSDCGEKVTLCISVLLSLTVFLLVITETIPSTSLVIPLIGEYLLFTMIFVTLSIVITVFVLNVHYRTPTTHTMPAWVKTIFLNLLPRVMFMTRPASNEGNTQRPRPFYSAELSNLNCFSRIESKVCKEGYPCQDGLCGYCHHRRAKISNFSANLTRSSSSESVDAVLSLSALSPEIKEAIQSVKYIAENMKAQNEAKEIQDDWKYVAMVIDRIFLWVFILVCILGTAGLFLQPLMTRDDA
T1 sequence (Q8SPU6 20-496): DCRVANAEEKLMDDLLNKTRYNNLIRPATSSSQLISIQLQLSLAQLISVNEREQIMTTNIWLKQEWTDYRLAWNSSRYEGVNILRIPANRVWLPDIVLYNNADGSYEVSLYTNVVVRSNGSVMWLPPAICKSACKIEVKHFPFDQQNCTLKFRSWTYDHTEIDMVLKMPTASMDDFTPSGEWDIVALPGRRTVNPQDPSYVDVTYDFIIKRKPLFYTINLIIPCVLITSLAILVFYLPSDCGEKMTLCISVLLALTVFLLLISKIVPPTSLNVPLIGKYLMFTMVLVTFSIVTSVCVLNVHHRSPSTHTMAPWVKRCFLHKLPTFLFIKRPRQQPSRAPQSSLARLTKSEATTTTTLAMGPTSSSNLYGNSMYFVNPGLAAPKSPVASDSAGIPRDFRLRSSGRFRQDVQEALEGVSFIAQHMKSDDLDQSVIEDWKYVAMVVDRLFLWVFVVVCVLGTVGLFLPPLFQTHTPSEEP

## C[C@@H]1NC(=O)[C@@H]2CSSC[C@H](NC(=O)CN)C(=O)N[C@@H](CC=CC[C@@H](C(N)=O)NC(=O)[C@H](CCCNC(=N)N)NC(=O)[C@H](Cc3cc4ccccc4[nH]3)NC1=O)C(=O)N[C@@H](CO)C(=O)N[C@@H](CC(=O)O)C(=O)N1CCCC1C(=O)N[C@@H](CCCNC(=N)N)C(=O)N2 (stereo partly drawn) [compound 119, [2,8]-Cystino-[3,12]-Dicarba Conotoxin ImI: NH2-Gly-Cys-c[Hag-Ser-Asp-Pro-Arg-Cys-Ala-Trp-Arg-Hag]-NH2] (H-GC[AllylGly]SD[ξP]RCA[Ala(indol-2-yl)]R[AllylGly]-NH2; disulfide 2-8; staple 3-12)
  Adrenaline Release, % control: 83.420% and 58.888%
  Adrenaline Release, mean: 3.77% and 2.76%
  Adrenaline Release, single determinations (1st-4th): 3.31% and 3.67% and 4.14% and 3.98% and 2.32% and 2.95% and 2.76% and 3.02%
  Noradrenaline Release, % control: 55.971% and 78.400%
  Noradrenaline Release, % inhibition: 21.600%
  Noradrenaline Release, mean: 4.15% and 5.52%
  Noradrenaline Release, single determinations (1st-4th): 3.22% and 4.58% and 3.99% and 4.81% and 4.89% and 5.75% and 5.73%
  noradrenaline released, basal release (0.72%) subtracted: 3.43%
